Measurements published in ChEMBL document CHEMBL1135474, “Synthesis and antitumor activity of 1,5,6-substituted E-3-(2-chloro-3-indolylmethylene)-1,3-dihydroindol-2-ones” (J Med Chem, 2002).

Experiments:
Type in all cases: functional
[1] = system: Panel CNS (Carcinoma cell lines); assay: Inhibition of proliferation in NCI human CNS tumor cell lines
[2] = system: Panel CNS (Carcinoma cell lines); assay: Cytotoxic effect on human CNS tumor cell lines
[3] = system: Panel CNS (Carcinoma cell lines); assay: Cytostatic effect on human CNS tumor cell lines
[4] = system: Panel colon (Carcinoma cell lines); assay: Cytostatic effect on human colon tumor cell lines
[5] = system: Panel leukemia (Carcinoma cell lines); assay: Inhibition of proliferation in NCI human leukemia tumor cell lines
MCF7 = assay: Cytotoxic effect on human MCF-7 breast cancer cell line as percentage growth at 10e-4 M
NCI-H460 = assay: Cytotoxic effect on human NCI-H460 lung cancer cell line as percentage growth after inoculation at 10e-4 M
NSCLC [6] = assay: Cytostatic effect on human non-small cell lung carcinoma tumor cell lines
NSCLC [7] = assay: Inhibition of proliferation in NCI human non-small cell lung tumor cell lines
[8] = system: Panel prostate (Carcinoma cell lines); assay: Cytotoxic effect on human prostate tumor cell lines
SF-268 = assay: Cytotoxic effect on human SF-268 glioma cancer cell line as percentage growth after inoculation at 10e-4 M
[9] = system: Panel breast (Carcinoma cell lines); assay: Inhibition of proliferation in NCI human breast tumor cell lines
[10] = system: Panel breast (Carcinoma cell lines); assay: Cytotoxic effect on human breast tumor cell lines
[11] = system: Panel breast (Carcinoma cell lines); assay: Cytostatic effect on human breast tumor cell lines
[12] = system: Panel leukemia (Carcinoma cell lines); assay: Cytotoxic effect on human leukemia tumor cell lines
[13] = system: Panel leukemia (Carcinoma cell lines); assay: Cytostatic effect on human leukemia tumor cell lines
[14] = system: Panel colon (Carcinoma cell lines); assay: Inhibition of proliferation in NCI human colon tumor cell lines
[15] = system: Panel colon (Carcinoma cell lines); assay: Cytotoxic effect on human colon tumor cell lines
[16] = system: Panel ovarian (Carcinoma cell lines); assay: Inhibition of proliferation in NCI human ovarian tumor cell lines
[17] = system: Panel ovarian (Carcinoma cell lines); assay: Cytotoxic effect on human ovarian tumor cell lines
[18] = system: Panel ovarian (Carcinoma cell lines); assay: Cytostatic effect on human ovarian tumor cell lines
[19] = system: Panel melanoma (Carcinoma cell lines); assay: Inhibition of proliferation in NCI human melanoma tumor cell lines
[20] = system: Panel melanoma (Carcinoma cell lines); assay: Cytotoxic effect on human melanoma tumor cell lines
[21] = system: Panel melanoma (Carcinoma cell lines); assay: Cytostatic effect on human melanoma tumor cell lines
[22] = system: Panel prostate (Carcinoma cell lines); assay: Inhibition of proliferation in NCI human prostate tumor cell lines
[23] = system: Panel prostate (Carcinoma cell lines); assay: Cytostatic effect on human prostate tumor cell lines
[24] = Cytostatic effect on 60 human tumor cell line panel, MG-MID represents mean value
[25] = Inhibition of proliferation in NCI 60 human tumor cell line panel, MG-MID represents mean value
[26] = Cytotoxic effect on 60 human tumor cell line panel, MG-MID represents mean value
[27] = system: Panel renal (Carcinoma cell lines); assay: Inhibition of proliferation in NCI human renal tumor cell lines
[28] = system: Panel renal (Carcinoma cell lines); assay: Cytotoxic effect on human renal tumor cell lines
[29] = system: Panel renal (Carcinoma cell lines); assay: Cytostatic effect on human renal tumor cell lines

Row | Compound | GI50 [1] | LC50 [2] | logTGI [3] | logTGI [4] | GI50 [5] | logTGI (NSCLC [6]) | GI50 (NSCLC [7]) | LC50 [8] | GI50 [9] | LC50 [10] | logTGI [11] | LC50 [12] | logTGI [13] | GI50 [14] | LC50 [15] | GI50 [16] | LC50 [17] | GI50 [19] | LC50 [20] | GI50 [22] | further results
1 | COc1cc2c(cc1C)NC(=O)/C2=C/c1c(Cl)[nH]c2cc(C)c(OC)cc12 | 631 nM | -4.6 | -5.3 log M | -4.7 log M | 501 nM | -4.8 log M | 3160 nM | -4.4 | 2510 nM | -4.1 | -4.7 log M | -4.2 | -4.8 log M | 3980 nM | -4.2 | 2000 nM | -4.4 | 3160 nM | -4.3 | 1260 nM | Growth (MCF7): -51%; Growth (NCI-H460): -63%; Growth (SF-268): -67%; TGI [18]: -4.9 log10 M; TGI [21]: -4.8 log10 M; logTGI [23]: -4.9 log M; logTGI [24]: -4.8 log M; GI50 [25]: 2000 nM; LC50 [26]: -4.3; GI50 [27]: 2510 nM; LC50 [28]: -4.3; logTGI [29]: -4.8 log M
2 | CC[C@]1(O)C[C@H]2CN(CCc3c([nH]c4ccccc34)[C@@](C(=O)OC)(c3cc4c(cc3OC)N(C=O)[C@H]3[C@@](O)(C(=O)OC)[C@H](OC(C)=O)[C@]5(CC)C=CCN6CC[C@]43[C@@H]65)C2)C1.O=S(=O)(O)O [VINCRISTINE SULFATE] | 126 nM | -3.7 | -5.2 | -5.4 | 100 nM | -4.8 log M | 251 nM | -3.5 | 316 nM | -3.5 | -5.1 | -3.2 | -4.8 | 100 nM | -4.1 | 316 nM | -3.5 | 158 nM | -3.6 | 126 nM | logTGI [18]: -4.7; logTGI [21]: -5.1 log M; logTGI [23]: -5.2; logTGI [24]: -5; GI50 [25]: 200 nM; LC50 [26]: -3.6; GI50 [27]: 316 nM; LC50 [28]: -3.6; logTGI [29]: -4.7
